# Legend:
# OVCAR-3 = assay: Cytotoxicity in OVCAR-3 ovarian cancer cells; format: cell-based; settings: OVCAR-3 ovarian cancer cell line; read-out: IC50 in Human Cancer Cell Lines
# Method: (§1) MDA-MB-435S.luc cells were grown in Leibovitz's L 15 medium, 10% fetal bovine serum, 0.01 mg/ml bovine insulin, 100 IU/ml penicillin, 100 microg/ml streptomycin. The cells were cultured in tight closed flasks. The incubations were conducted using 96 well plates at 10,000 cells per well. Cells were typically seeded into 96 well plates and media was replaced after 48 hours of incubation. Each assay was conducted at increasing concentrations of 0, 0.001, 0.01, 0.05, 0.1, 0.5, 1, 2, 5, 10 and 100 micromolar doses of lytic peptide-binding domain conjugate. Each lytic peptide-binding domain conjugate provided in lyophilized form and was freshly dissolved in saline and added to cells. The duration of incubation was typically 24 h, and cell viability assays were conducted using formazan conversion assays (MTT assay). Controls contained saline or 0.1% triton as reference for 0 and 100% cell death, respectively.
# (§2) To ascertain the IC50 of various fusion constructs on different human cancer cell lines compared to cisplatinum, IC50 of fusion constructs were evaluated as in Table 3.
# SKOV-3 = assay: Cytotoxicity in SKOV-3 ovarian cancer cells; format: cell-based; settings: SKOV-3 ovarian cancer cell line; read-out: IC50 in Human Cancer Cell Lines
# Method: as §1, §2
# LNCaP = assay: Cytotoxicity in LNCaP prostate cancer cells; format: cell-based; settings: LNCaP prostate cancer cell line; read-out: IC50 in Human Cancer Cell Lines
# Method: as §1, §2
# [1] = test system: MDA-MB-435S.luc xenograft; assay: MDA-MB-435S.luc xenograft, LHRH fusion constructs; format: in vivo, Nu/Nu mice
# Method: For LHRH fusion constructs, the mouse xenograft model for breast cancer was used. In brief. Nu/Nu female mice, outbred strain, age 5 weeks (Charles River) were injected subcutaneously with a MDA-MB-435S.luc/Matrigel suspension (1×10^6 cells). Treatment was started on day 21 after tumor cell injection and continued on day 26 and 29. The doses for weekly fusion construct injections were 2, 0.2 and 0.02 mg/kg body weight, given as a bolus single injection. All mice were necropsied 34 days after tumor cell injection-baseline values for tumor weights were obtained by sacrificing 8 mice at treatment start. Primary tumors, liver, kidney, pancreas, heart, lung, and spleen were collected and prepared for histological evaluation in formalin. Tumor weights were recorded at necropsy, part of the tumors were frozen at −80 ° C. for luciferase assay determination.
# Characteristics of tumors at necropsy are summarized in FIG. 10; (A) tumor weight, (B) changes of tumor weights compared to baseline, (C) total number of live tumor cells, (D) changes of total live tumor cells compared to baseline, and (E) bodyweights at baseline and necropsy. Viability of tumor cells was determined at the end of the study when tumors were measured for luciferase activity. Treatment efficacy was calculated as difference between measurements at the beginning of treatment compared to the measurement at the end of study (FIG. 10B and 10D).
# MDA-MB-435S xenograft [2] = assay: MDA-MB-435S xenograft, multiple dose regimen; format: in vivo, Nu/Nu mice; settings: for tumor free mice: multiple intravenous injections
# Method: In order to determine the minimal effective dose necessary to reduce MDA-MB-435S xenograft weights in a multiple dose regimen, Nu/Nu female mice, outbred strain, age 8 weeks (Charles River), were injected (s.c.) into the interscapular region with a MDA-MB-435S (passage # 253)/Matrigel suspension (2×10^6 cells/mouse) as previously described above. Phor 18-LHRH (338613) (ID: 338613 lot #P080401) (0.002, and 0.2 mg/kg) were reconstituted in USP saline prior to dosing. The doses were given as a single bolus intravenous injection via lateral tail vein on days 15, 16, 17, 20, 21, 22, 23, 27, 28, 29, 30, 33, 34, 35, 36, 37, 38, 40, 41, 42 after tumor cell inoculation. Saline injections served as control groups.
# Each treatment group consisted of 16 mice. During the entire study tumor volumes were recorded twice weekly. Final necropsy was conducted on day 45 after tumor cell injection. […] due to occlusion of the tail vein in most mice. At study endpoint body weight, tumor weights were determined and fixed in phosphate buffered 10% formalin.
# MDA-MB-435S xenograft [3] = assay: MDA-MB-435S xenograft, kinetics after a single injection; format: in vivo, Nu/Nu mice; settings: 0.2 and 2 mg/kg
# Method: In brief, Nu/Nu female mice, outbred strain, age 5 weeks (Charles River), were injected (s.c.) into the interscapular region with a MDA-MB-435S (passage #249)/Matrigel suspension (2.4×10^6 cells/mouse) as described in Example 10. Phor 18-LHRH (338613) (ID: 338613 lot #P080401) (0.2, and 2 mg/kg) were reconstituted in USP saline prior to dosing. The doses were given as a single bolus intravenous injection via lateral tail vein.
# Mice were sacrificed 1, 2 and 16 hours after treatment with Phor 18-LHRH (338613) or saline. At study endpoint body weight, tumor weights were determined, and tumors were fixed in phosphate buffered 10% formalin.
# MCF-7 xenograft = assay: MCF-7 breast cancer xenograft; format: in vivo, nude mice; settings: MCF-7, 2 × 3 wk, 19 d
# Method: In vivo efficacy studies were conducted as monotherapy, or a combination therapy with standard of care treatments in nude mice bearing human melanoma xenografts; MDA-MB-435S.luc (s.c.), human breast cancer xenografts MCF-7 (estrogen receptor alpha positive), human ovarian cancer xenografts; OVCAR-3, (s.c.), human prostate cancer xenografts; PC-3 (androgen receptor negative).
# Mice were sacrificed one week after the last injection and blood collected for chemistry panel, tumor weights and body weights were recorded. Part of the tumors were fixed in PBS buffered 10% formalin for histological evaluation.
# CD8+ T cells = assay: T cell activation by condition media from EP-100-treated ID8 cells; format: cell-based, mouse; settings: cells treated with condition media (CM) from EP-100-treated cells; controls 12.3±1.1, p=0.04
sequence,measurement,setting,value
KFAKFAKKFAKFAKKFAKQHWSYGLRPG [Phor18-LHRH],IC50,OVCAR-3,3000 nM
same,IC50,SKOV-3,11.8 ± 0.3 µM
same,IC50,LNCaP,1550 ± 80 nM
same,"treatment efficacy (tumor weight, live tumor cells)","[1]; 0.02, 0.2 and 2 mg/kg, vs baseline, saline and Phor21-βCG-ala",Equally effective as Phor21-βCG-ala
same,tumor volume,[1]; during treatment and after 30 days,smallest tumor volumes
same,concentrations resulting in tumor weights similar to baseline,"[1]; mouse, in vivo",0.2 mg/kg
same,In vivo Performance compared to 33,"[1]; tumor weight and live tumor cell reduction vs baseline compared to peptide 33, LHRH construct study",1
same,tumor free mice,MDA-MB-435S xenograft [2]; 0.002 mg/kg,6/23
same,tumor free mice,MDA-MB-435S xenograft [2]; 0.2 mg/kg,1/20
same,histological examination of H&E stained tumors,"MDA-MB-435S xenograft [2]; 0.002 and 0.2 mg/kg, multiple injection regimen",eradication of tumor cells
same,time to destruction of tumors after injection,MDA-MB-435S xenograft [3],1 h
same,"Median Tumor Weight vs Saline P < 0.05 (dose, growth delay)",MCF-7 xenograft,0.02 mg/kg
same,proportion of CD8+ T cells,CD8+ T cells,17.3±1.1

# Reference: patent US20240228542A1, “LYTIC DOMAIN FUSION CONSTRUCTS, CHECKPOINT INHIBITORS, AND METHODS OF MAKING AND USING SAME” (A28 Therapeutics Inc., priority 2020, published 2024)
